According to patent publication US10899738B2 (THE REGENTS OF THE UNIVERSITY OF MICHIGAN, priority 2016, dated 2021):

Target: menin protein (Homo sapiens (Human), UniProt O00255)
Experiment: biochemical
Format: binding
Conditions: FP competitive binding, menin protein 4 nM, FAM-MM2 probe 2 nM; for IC50: read-out: Menin Binding Affinity IC50
In short: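 Competitive fluorescence polarization assay using FAM-labelled MLL1 peptide probe FAM-MM2 (2 nM final) preincubated with menin (4 nM final) in PBS with 0.02% bovine γ-globulin, 4% DMSO and 0.01% Triton X-100. Compounds were added and incubated 30 min at room temperature. IC50 came from nonlinear regression of competition curves, with Ki also derived.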

Sequence of menin protein (O00255 whole entry): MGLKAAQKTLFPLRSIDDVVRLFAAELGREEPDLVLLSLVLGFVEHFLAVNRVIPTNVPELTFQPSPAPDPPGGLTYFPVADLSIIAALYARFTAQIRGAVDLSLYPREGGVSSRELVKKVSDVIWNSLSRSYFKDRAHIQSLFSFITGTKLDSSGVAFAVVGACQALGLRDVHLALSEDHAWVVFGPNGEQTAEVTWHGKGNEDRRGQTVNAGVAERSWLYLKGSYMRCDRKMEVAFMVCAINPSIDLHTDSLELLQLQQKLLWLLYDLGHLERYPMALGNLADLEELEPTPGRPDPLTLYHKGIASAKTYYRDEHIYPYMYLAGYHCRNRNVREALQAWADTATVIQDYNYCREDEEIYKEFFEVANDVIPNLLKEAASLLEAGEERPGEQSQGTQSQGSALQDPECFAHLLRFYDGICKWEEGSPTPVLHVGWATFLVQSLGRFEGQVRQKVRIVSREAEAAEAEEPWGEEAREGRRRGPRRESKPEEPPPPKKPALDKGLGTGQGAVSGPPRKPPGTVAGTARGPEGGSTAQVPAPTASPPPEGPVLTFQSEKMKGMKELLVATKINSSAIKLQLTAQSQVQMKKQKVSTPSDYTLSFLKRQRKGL

SMILES | Menin Binding Affinity IC50 (μM) | IC50 [µM]
CCN1Cc2ccccc2C(C2CCCC2)(C2CCN(S(=O)(=O)C3CN(c4ccc(S(=O)(=O)c5ccncc5)cc4)C3)CC2)C1 (centres unmarked) [compound 160, 4-cyclopentyl-2-ethyl-4-(1-((1-(4-(pyridin-4-ylsulfonyl)phenyl)azetidin-3-yl)sulfonyl)piperidin-4-yl)-1,2,3,4-tetrahydroisoquinoline] | No inhibition | –
CCN1Cc2ccccc2C(C2CCCC2)(C2CCN(CC3(C)CN(c4ccc(S(=O)(=O)c5ccncc5)cc4)C3)CC2)C1 (centres unmarked) [compound 161, 4-cyclopentyl-2-ethyl-4-(1-((3-methyl-1-(4-(pyridin-4-ylsulfonyl)phenyl)azetidin-3-yl)methyl)piperidin-4-yl)-1,2,3,4-tetrahydroisoquinoline] | – | 0.021
CCN1Cc2ccccc2C(C2CCCC2)(C2CCN(Cc3ccccc3Oc3ccc(S(=O)(=O)c4ccncc4)cc3)CC2)C1 (centres unmarked) [compound 162, 4-cyclopentyl-2-ethyl-4-(1-(2-(4-(pyridin-4-ylsulfonyl)phenoxy)benzyl)piperidin-4-yl)-1,2,3,4-tetrahydroisoquinoline] | No inhibition | –
CCN1Cc2ccccc2C(C2CCCC2)(C2CCN(Cc3ccccc3Oc3ccc(C#N)cc3)CC2)C1 (centres unmarked) [compound 163, 4-(2-((4-(4-cyclopentyl-2-ethyl-1,2,3,4-tetrahydroisoquinolin-4-yl)piperidin-1-yl)methyl)phenoxy)benzonitrile] | No inhibition | –
CN1CCC(C2(C3CCCCN3)CN(C)Cc3ccccc32)CC1 (centres unmarked) [compound 166, 2-methyl-4-(1-methylpiperidin-4-yl)-4-(piperidin-2-yl)-1,2,3,4-tetrahydroisoquinoline] | – | 1410
CN1CCC(C2(C3C=CCCN3)CN(C)Cc3ccccc32)CC1 (centres unmarked) [compound 167, 2-methyl-4-(1-methylpiperidin-4-yl)-4-(1,2,5,6-tetrahydropyridin-2-yl)-1,2,3,4-tetrahydroisoquinoline] | – | 172
CS(=O)(=O)c1ccc(N2CC(CN3CCC(C(C#N)(c4ccccc4)C4CCC(=O)C4)CC3)C2)cc1 (centres unmarked) [compound 169, 2-(1-((1-(4-(methylsulfonyl)phenyl)azetidin-3-yl)methyl)piperidin-4-yl)-2-(3-oxocyclopentyl)-2-phenylacetonitrile] | – | 49.9
CN1Cc2ccccc2C(c2ccccn2)(C2CCN(CC3CN(c4ccc(S(C)(=O)=O)cc4)C3)CC2)C1 (centres unmarked) [compound 170, 2-methyl-4-(1-((1-(4-(methylsulfonyl)phenyl)azetidin-3-yl)methyl)piperidin-4-yl)-4-(pyridin-2-yl)-1,2,3,4-tetrahydroisoquinoline] | – | 47.6
CCC(C)CC1(C2CCN(CCCOc3ccc(C#N)cc3)CC2)NCCc2ccccc21 (centres unmarked) [compound 172, 4-(3-(4-(1-(2-methylbutyl)-1,2,3,4-tetrahydroisoquinolin-1-yl)piperidin-1-yl)propoxy)benzonitrile] | – | 11.2
C=C(C)CC1(C2CCN(CCCOc3ccc(C#N)cc3)CC2)NCCc2ccccc21 (centres unmarked) [compound 173, 4-(3-(4-(1-(2-methylallyl)-1,2,3,4-tetrahydroisoquinolin-1-yl)piperidin-1-yl)propoxy)benzonitrile] | – | 3
CO[C@H]1CCC[C@@H]1C(C#N)(c1ccccc1)C1CCN(CCCOc2ccc(C#N)cc2)CC1 (stereo partly drawn) [compound 174, 4-(3-(4-(cyano((1R,2S)-2-methoxycyclopentyl)(phenyl)methyl)piperidin-1-yl)propoxy)benzonitrile] | – | 24.6
N#CC(c1ccccc1)(C1CCCC1)C1CCN(CC2CN(c3ccc(S(=O)(=O)c4ccncc4)cc3)C2)CC1 (centres unmarked) [compound 190, 2-cyclopentyl-2-phenyl-2-(1-((1-(4-(pyridin-4-ylsulfonyl)phenyl)azetidin-3-yl)methyl)piperidin-4-yl)acetonitrile] | – | 2
Cc1cc(S(=O)(=O)c2ccc(N3CC(CN4CCC(C5(C6=CCCC6)CN(C)Cc6ccccc65)CC4)C3)cc2)ccn1 (centres unmarked) [compound 205, 4-(cyclopent-1-en-1-yl)-2-methyl-4-(1-((1-(4-((2-methylpyridin-4-yl)sulfonyl)phenyl)azetidin-3-yl)methyl)piperidin-4-yl)-1,2,3,4-tetrahydroisoquinoline] | – | 0.088
C[C@H](NC(=O)O[C@H]1CCC[C@@H]1[C@](C#N)(c1ccccc1)C1CCN(CC2CN(c3ccc(S(=O)(=O)c4ccncc4)cc3)C2)CC1)c1ccccc1 [compound 217, (1S,2R)-2-((S)-cyano(phenyl)(1-((1-(4-(pyridin-4-ylsulfonyl)phenyl)azetidin-3-yl)methyl)piperidin-4-yl)methyl)cyclopentyl ((S)-1-phenylethyl)carbamate] | – | 11.6
C[C@H](NC(=O)O[C@@H]1CCC[C@H]1[C@@](C#N)(c1ccccc1)C1CCN(CC2CN(c3ccc(S(=O)(=O)c4ccncc4)cc3)C2)CC1)c1ccccc1 [compound 218, (1R,2S)-2-((R)-cyano(phenyl)(1-((1-(4-(pyridin-4-ylsulfonyl)phenyl)azetidin-3-yl)methyl)piperidin-4-yl)methyl)cyclopentyl ((S)-1-phenylethyl)carbamate] | No inhibition | –
CC(C)CC1(C2CCN(CCCOc3ccc(C#N)cc3)CC2)NCCc2ccccc21 (centres unmarked) [compound 242, 4-(3-(4-(1-isobutyl-1,2,3,4-tetrahydroisoquinolin-1-yl)piperidin-1-yl)propoxy)benzontrile] | – | 2.1

SMILES | Menin Binding Affinity IC50 (μM) | IC50 [µM]
N#Cc1ccc(OCCCN2CCC(C3(Cc4ccccc4)NCCc4ccccc43)CC2)cc1 (centres unmarked) [compound 243, 4-(3-(4-(1-benzyl-1,2,3,4-tetrahydroisoquinolin-1-yl)piperidin-1-yl)propoxy)benzonitrile] | – | 4.2
N#Cc1ccc(OCCCN2CCC(C3(C4CCc5ccccc54)NCCc4ccccc43)CC2)cc1 (centres unmarked) [compound 244, 4-(3-(4-(1-(2,3-dihydro-1H-inden-1-yl)-1,2,3,4-tetrahydroisoquinolin-1-yl)piperidin-1-yl)propoxy)benzonitrile] | – | 2.3
CCCC(C)C1(C2CCN(CCCOc3ccc(C#N)cc3)CC2)NCCc2ccccc21 (centres unmarked) [compound 245, 4-(3-(4-(1-(pentan-2-yl)-1,2,3,4-tetrahydroisoquinolin-1-yl)piperidin-1-yl)propoxy)benzonitrile] | – | 3.3
N#Cc1ccc(OCCCN2CCC(C3(c4ccccc4)NCCc4ccccc43)CC2)cc1 (centres unmarked) [compound 246, 4-(3-(4-(1-phenyl-1,2,3,4-tetrahydroisoquinolin-1-yl)piperidin-1-yl)propoxy)benzonitrile] | – | 35.6
N#Cc1ccc(OCCCN2CCC(C3(C4CCC4)NCCc4ccccc43)CC2)cc1 (centres unmarked) [compound 247, 4-(3-(4-(1-cyclobutyl-1,2,3,4-tetrahydroisoquinolin-1-yl)piperidin-1-yl)propoxy)benzonitrile] | – | 1.1
CCS(=O)(=O)c1ccc(N2CC(CN3CCC(C4(CC(C)(C)C)NCCc5ccccc54)CC3)C2)cc1 (centres unmarked) [compound 248, 1-(1-((1-(4-(ethylsulfonyl)phenyl)azetidin-3-yl)methyl)piperidin-4-yl)-1-neopentyl-1,2,3,4-tetrahydroisoquinoline] | – | 0.8
CCC(CC)C1(C2CCN(CCCOc3ccc(C#N)cc3)CC2)NCCc2ccccc21 (centres unmarked) [compound 249, 4-(3-(4-(1-(pentan-3-yl)-1,2,3,4-tetrahydroisoquinolin-1-yl)piperidin-1-yl)propoxy)benzonitrile] | – | 1.9
CC(C)CCC1(C2CCN(CCCOc3ccc(C#N)cc3)CC2)NCCc2ccccc21 (centres unmarked) [compound 250, 4-(3-(4-(1-isopentyl-1,2,3,4-tetrahydroisoquinolin-1-yl)piperidin-1-yl)propoxy)benzonitrile] | – | 4.7
N#Cc1ccc(OCCCN2CCC(C3(CC4CCCCC4)NCCc4ccccc43)CC2)cc1 (centres unmarked) [compound 251, 4-(3-(4-(1-(cyclohexylmethyl)-1,2,3,4-tetrahydroisoquinolin-1-yl)piperidin-1-yl)propoxy)benzonitrile] | – | 7.1
CCC(CC)CC1(C2CCN(CCCOc3ccc(C#N)cc3)CC2)NCCc2ccccc21 (centres unmarked) [compound 252, 4-(3-(4-(1-(2-ethylbutyl)-1,2,3,4-tetrahydroisoquinolin-1-yl)piperidin-1-yl)propoxy)benzonitrile] | – | 1.2
C=CCC1(C2CCN(CCCOc3ccc(C#N)cc3)CC2)NCCc2ccccc21 (centres unmarked) [compound 293, 4-(3-(4-(1-allyl-1,2,3,4-tetrahydroisoquinolin-1-yl)piperidin-1-yl)propoxy)benzonitrile] | – | 2.8
N#Cc1ccc(OCCCN2CCC(C(C#N)(c3ccccc3)C3CCCCC3)CC2)cc1 (centres unmarked) [compound 294, 4-(3-(4-(cyano(cyclohexyl)(phenyl)methyl)piperidin-1-yl)propoxy)benzonitrile] | – | 11.1
CS(=O)(=O)c1ccc(OCCCN2CCC(C3(C4CCCCC4)NCCc4ccccc43)CC2)cc1 (centres unmarked) [compound 295, 1-cyclohexyl-1-(1-(3-(4-(methylsulfonyl)phenoxy)propyl)piperidin-4-yl)-1,2,3,4-tetrahydroisoquinoline] | – | 1.9
CS(=O)(=O)c1ccc(OCCCN2CCC(C3(C4CCCC4)NCCc4ccccc43)CC2)cc1 (centres unmarked) [compound 296, 1-cyclopentyl-1-(1-(3-(4-(methylsulfonyl)phenoxy)propyl)piperidin-4-yl)-1,2,3,4-tetrahydroisoquinoline] | – | 0.4
CC(=O)N1CCCCC1C1(C2CCN(CCCOc3ccc(C#N)cc3)CC2)CN(C)Cc2ccccc21 (centres unmarked) [compound 297, 4-(3-(4-(4-(1-acetylpiperidin-2-yl)-2-methyl-1,2,3,4-tetrahydroisoquinolin-4-yl)piperidin-1-yl)propoxy)benzonitrile] | – | 2.1
N#Cc1ccc(OCCCN2CCC(C3(C4CCCCC4)NCCc4ccccc43)CC2)cc1 (centres unmarked) [compound 298, 4-(3-(4-(1-cyclohexyl-1,2,3,4-tetrahydroisoquinolin-1-yl)piperidin-1-yl)propoxy)benzonitrile] | – | 0.3
